Assay [1] deals with fully phosphorylated, active Mouse ERK2 protein (Mus musculus (Mouse), UniProt P63085). As to the kind of experiment: Active ERK2 (aERK) IMAP assay, condition 1. It is filed as biochemical. Particulars: aERK assay condition 1, 30 μM ATP. How it is done:
Active ERK2 (aERK) Assay: (Unless Indicated Otherwise, the Data Provided for aERK was obtained using Condition 1)
Activated ERK2 activity was also determined in the IMAP assay format using the procedure outlined above. […] Reactions proceeded for 30 minutes before termination by addition of 60 μl IMAP detection beads in binding buffer. Plates were read as above after 30 minute binding equilibration.

Assay [2] addresses ERK protein (Mus musculus, UniProt P63085). As to the kind of experiment: TdF (Temperature Dependence Fluorescence, thermal shift) assay for ERK. It counts as binding. Particulars: 3 μM ERK protein, uncertainty estimated ±50%, read-out: Kd TdF. The text has this: Assays: TdF Assay for ERK […] The TdF assay was mainly conducted in the 96-well based CHROMO-4 real time fluorescence plate reader (BioRad). The Sypro Orange (Sigma-Aldrich), environmentally sensitive fluorescence dye, was used to monitor the protein folding-unfolding transition. Protein-ligand binding was gauged by the change (or shift) in the unfolding transition temperature (ΔTm) acquired at protein alone with respect to protein in the presence of ligand of interest. Compound of interest was first prepared in DMSO stock (typical concentration: 10 mM). […] Final percentage of DMSO resided in the sample was 2%. The sample plate was heated from 30° C. to 90° C. with thermal ramping rate of 1° C./min. […] The instrument thermal stability was ±0.2° C. The melting temperatures (Tm) for ERK protein under aforementioned conditions occurred at 61.0±0.2° C. and 64.8±02° C. respectively. Theoretical Basis for TdF-Based Ligand Binding Affinity Constant […] In brief, the binding constant of the ligand at the Tm is expressed as below: [formula] where T0 is the midpoint of unfolding for unliganded protein and Tm is the midpoint of unfolding in presence of ligand. [LTm] is free ligand at Tm. The ΔHu and ΔCpu are the enthalpy of unfolding and heat capacity change of unfolding for the protein respectively. Following algorithm derived by Winsor and coworker, the T0, ΔHu and ΔCpu can be determined separately from nonlinear regression fitting the protein alone melting curve: Where F(T) is the observed fluorescence intensity at any temperature T, Yn and Yu are the predicted fluorescence intensities for fully folded and unfolded protein, respectively; mn and mu are slope correction for changes in Yn and Yu with respect to changes in temperature (analogously replace T0 with Tm in the above equation for liganded protein to yield Tm). […] [formula] where ΔHL (T) is the van't Hoff enthalpy of ligand binding at temperature T and ΔCpL is the heat capacity upon ligand binding. For simplicity, the ΔCpL and ΔHL (T) were set to zero and −7 kcal/mol respectively.

ERK protein, sequence (P63085 2-358 limits assumed): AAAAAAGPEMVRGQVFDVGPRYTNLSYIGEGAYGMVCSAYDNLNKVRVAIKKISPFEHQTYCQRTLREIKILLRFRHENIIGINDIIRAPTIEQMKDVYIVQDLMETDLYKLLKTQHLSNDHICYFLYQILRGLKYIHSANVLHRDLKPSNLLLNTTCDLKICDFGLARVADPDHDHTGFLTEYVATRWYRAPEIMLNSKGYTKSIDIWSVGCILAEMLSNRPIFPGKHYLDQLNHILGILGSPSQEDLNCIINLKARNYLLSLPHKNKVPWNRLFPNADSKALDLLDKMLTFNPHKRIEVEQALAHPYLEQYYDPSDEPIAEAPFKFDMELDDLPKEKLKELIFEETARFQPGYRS
fully phosphorylated, active Mouse ERK2 protein, sequence (P63085 whole entry): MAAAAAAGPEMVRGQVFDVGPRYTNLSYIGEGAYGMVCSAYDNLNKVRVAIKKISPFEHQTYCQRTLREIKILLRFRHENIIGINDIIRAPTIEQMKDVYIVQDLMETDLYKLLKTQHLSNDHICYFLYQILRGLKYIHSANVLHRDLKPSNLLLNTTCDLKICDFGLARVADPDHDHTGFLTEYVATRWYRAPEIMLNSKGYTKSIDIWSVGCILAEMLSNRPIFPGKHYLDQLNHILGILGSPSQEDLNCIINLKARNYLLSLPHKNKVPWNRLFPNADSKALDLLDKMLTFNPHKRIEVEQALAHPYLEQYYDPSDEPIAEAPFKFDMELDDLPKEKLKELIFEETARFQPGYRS

In assay [1], `Cc1cc(-c2n[nH]c3ccc(C(=O)N[C@@H]4CCCN(Cc5ccccc5F)C4)cc23)ccn1` returned an IC50 of 10.7 nM. Further, the Kd in assay [2] was 0.5 nM.

Turning to `O=C(N[C@@H]1CCCN(Cc2ccccc2F)C1)c1ccc2[nH]nc(-c3ccnc(C(F)(F)F)c3)c2c1`, the midpoint of inhibition in assay [1], the IC50, lay at 507 nM. In addition, the Kd in assay [2] was 6.6 nM.

For the compound `COc1cccc(F)c1CN1CCCC(NC(=O)c2ccc3[nH]nc(-c4ccc5c(c4)CCO5)c3c2)C1` (stereo not shown), the IC50 in assay [1] amounted to 33 nM. In assay [2], the Kd is 0.52 nM.

Regarding `CC1CC(NC(=O)c2ccc3[nH]nc(-c4ccncc4)c3c2)CN(Cc2ccccc2F)C1` (stereo not shown), the IC50 in assay [1] is 16.4 nM. Further, the equilibrium dissociation constant (Kd) in assay [2] was 0.052 nM.

As to `Cn1cc(CN2CCC[C@@H](NC(=O)c3ccc4[nH]nc(-c5ccc6c(c5)CCO6)c4c3)C2)c2ccccc21`, the half-maximal inhibitory concentration (IC50) in assay [1] turned out to be 158 nM. For the same compound, the Kd in assay [2] was 11 nM.

Consider `Cc1cc(-c2n[nH]c3ccc(C(=O)N[C@@H]4CCCN(Cc5ccccc5O)C4)cc23)ccn1`, for which half-maximal inhibition in assay [1] (IC50) required 140 nM. Also, the equilibrium dissociation constant (Kd) in assay [2] was 2.36 nM.

In assay [1], `COc1cccc(F)c1CN1CCC[C@@H](NC(=O)c2ccc3[nH]nc(-c4ccnc(C)c4)c3c2)C1` had an IC50 of 4.98 nM. Besides, the dissociation constant (Kd) in assay [2] is 0.22 nM.

In assay [1], `Cc1cc(-c2n[nH]c3ccc(C(=O)N[C@@H]4CCCN(Cc5c(F)cccc5F)C4)cc23)ccn1` displayed an IC50 of 29.7 nM. The Kd in assay [2] is 0.51 nM.

In turn, `CC(=O)Nc1cc(-c2n[nH]c3ccc(C(=O)N[C@@H]4CCCN(Cc5ccccc5F)C4)cc23)ccc1O` showed an IC50 in assay [1] of 74.7 nM. In addition, the Kd in assay [2] was 0.48 nM.

Turning to `COc1cccc(F)c1CN1CCC[C@@H](NC(=O)c2ccc3[nH]nc(-c4ccc(O)c(NC(C)=O)c4)c3c2)C1`, the concentration for half-maximal inhibition (IC50) in assay [1] was determined as 64.9 nM. Further, the Kd in assay [2] is 0.66 nM.

Compound `CC(=O)Nc1cc(-c2n[nH]c3ccc(C(=O)N[C@@H]4CCCN(Cc5c(F)cccc5F)C4)cc23)ccc1O` yielded an IC50 in assay [1] of 224 nM. The equilibrium dissociation constant (Kd) in assay [2] is 1.29 nM.

As for `COc1ccccc1CN1CCC[C@@H](NC(=O)c2ccc3[nH]nc(-c4ccc(O)c(NC(C)=O)c4)c3c2)C1`, the IC50 in assay [1] was determined as 254 nM. In addition, the Kd in assay [2] is 1.29 nM.

As to `CCCOc1ccccc1CN1CCC[C@@H](NC(=O)c2ccc3[nH]nc(-c4ccnc(C)c4)c3c2)C1`, the IC50 in assay [1] was 246 nM. Moreover, the Kd in assay [2] was 1.72 nM.

Regarding `COc1ccsc1CN1CCC[C@@H](NC(=O)c2ccc3[nH]nc(-c4ccnc(C)c4)c3c2)C1`, the IC50 in assay [1] turned out to be 137 nM. In addition, the Kd in assay [2] is 0.97 nM.

For `[2H]C1(N2CCC[C@@H](NC(=O)c3ccc4[nH]nc(-c5ccnc(C)c5)c4c3)C2)CCc2ccccc21` (stereo partly shown), in assay [1], the IC50 is 62.5 nM. In addition, in assay [2], the Kd is 0.34 nM.

`COc1cccc(F)c1CN1CC(NC(=O)c2ccc3[nH]nc(-c4ccc5nccn5c4)c3c2)CC(C(=O)O)C1` (stereo not shown): 64.7 nM corresponded to half-maximal inhibition in assay [1] (IC50). Besides, in assay [2], the dissociation constant (Kd) is 0.26 nM.

As to `Cc1cc(-c2n[nH]c3ccc(C(=O)N[C@@H]4CCCN(C(C)c5ccccc5)C4)cc23)ccn1` (stereo partly shown), 128 nM corresponded to half-maximal inhibition in assay [1] (IC50). In addition, the dissociation constant (Kd) in assay [2] is 4.4 nM.

The compound `Cc1cc(-c2n[nH]c3ccc(C(=O)NC4CCCN(Cc5ncccn5)C4)cc23)ccn1` (stereo not shown) displayed an IC50 in assay [1] of 923 nM. Besides, the Kd in assay [2] was 130 nM.

In assay [1], `COc1cccc(F)c1CN1CC(CO)CC(NC(=O)c2ccc3[nH]nc(-c4ccc5nccn5c4)c3c2)C1` (stereo not shown) came in with a half-inhibitory concentration (IC50) of 140 nM. For the same compound, the Kd in assay [2] was 1.68 nM.

In assay [1], `Cc1cc(-c2n[nH]c3ccc(C(=O)N[C@@H]4CCCN(CCc5ccccc5F)C4)cc23)ccn1` displayed an IC50 of 98.8 nM. Further, in assay [2], the Kd is 4.8 nM.

In assay [1], `Cc1cc(-c2n[nH]c3ccc(C(=O)N[C@@H]4CCCN(CC(=O)c5ccccc5F)C4)cc23)ccn1` returned an IC50 of 32.9 nM. Moreover, in assay [2], the Kd is 2.4 nM.

On to `COc1cccc(F)c1CN1C[C@H]2C[C@@H]1[C@H](NC(=O)c1ccc3[nH]nc(-c4ccc5nn(C)cc5c4)c3c1)C2`, for which the IC50 in assay [1] turned out to be 527 nM. For the same compound, the Kd in assay [2] was 85.2 nM.

On to `Cn1cc2cc(-c3n[nH]c4ccc(C(=O)NC5C[C@@H]6C[C@H]5N(Cc5c(F)cccc5F)C6)cc34)ccc2n1` (stereo partly shown), for which half-maximal inhibition in assay [1] (IC50) required 881 nM. The Kd in assay [2] was 3.29 nM.

These data come from patent publication US8999957B2, “Heterocyclic compounds as ERK inhibitors” (Merck Sharp & Dohme Corp., priority 2010, dated 2015).
